Toxic doses and inconclusive results are not listed.
Tested on: L1210 leukemia ip in BDF1 mice, survival T/C
Experiment: NCI In Vivo Anticancer Drug Screen. Data for tumor model L1210 Leukemia (intraperitoneal) in B6D2F1 (BDF1) mice
Settings: endpoint: mean survival time, higher = longer survival
Summary of the method: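 Antitumor effect is assessed in tumor-bearing animals. Survival in the compound arm is compared with a vehicle-dosed control arm and expressed as their quotient.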

[1] = dose: 25.0 mg/kg/injection, schedule: Q01DX009 (ip), vehicle: saline with Tween-80
[2] = dose: 50.0 mg/kg/injection, schedule: Q01DX009 (ip), vehicle: saline with Tween-80
[3] = dose: 100.0 mg/kg/injection, schedule: Q04DX003 (ip), vehicle: saline with Tween-80
[4] = dose: 100.0 mg/kg/injection, schedule: Q01DX001 (ip), vehicle: carboxymethylcellulose (CMC)
[5] = dose: 200.0 mg/kg/injection, schedule: Q01DX001 (ip), vehicle: carboxymethylcellulose (CMC)
[6] = dose: 400.0 mg/kg/injection, schedule: Q01DX001 (ip), vehicle: carboxymethylcellulose (CMC)
[7] = dose: 100.0 mg/kg/injection, schedule: Q04DX003 (ip), vehicle: saline
[8] = dose: 200.0 mg/kg/injection, schedule: Q04DX003 (ip), vehicle: saline
[9] = dose: 400.0 mg/kg/injection, schedule: Q04DX003 (ip), vehicle: saline

For `NC(=O)C1(c2ccccc2)CCN(Cc2ccccc2)CC1`, the T/C [1] was 100 % of control, the T/C [2] was 98 % of control and the T/C (dose: 50.0 mg/kg/injection, schedule: Q04DX003 (ip), vehicle: saline with Tween-80) was 95 % of control. The T/C (dose: 100.0 mg/kg/injection, schedule: Q01DX009 (ip), vehicle: saline with Tween-80) was 94 % of control and the T/C [3] was 92 % of control.

For `NCC1CC2CCC1CC2` (stereo not given), the T/C (dose: 12.5 mg/kg/injection, schedule: Q01DX009 (ip), vehicle: alcohol) was 106 % of control, the T/C (dose: 25.0 mg/kg/injection, schedule: Q01DX009 (ip), vehicle: alcohol) was 101 % of control and the T/C (dose: 50.0 mg/kg/injection, schedule: Q01DX009 (ip), vehicle: alcohol) was 106 % of control.

With `CNC(=O)O/N=C(/C)c1ccc(Cl)cc1` the T/C [4] was 93 % of control, the T/C [5] was 101 % of control and the T/C [6] was 101 % of control.

With `CC(=O)OC1C(CO)OC2C1Oc1nc(=N)c(F)cn12` (stereo not given) the T/C (dose: 100.0 mg/kg/injection, schedule: Q04DX002 (ip), vehicle: saline) was 92 % of control.

For `CN1CCN(c2ncnc3c2ncn3C2OC(CO)C(O)C2O)CC1` (stereo not given), the T/C (dose: 100.0 mg/kg/injection, schedule: Q01DX005 (ip), vehicle: water) was 95 % of control, the T/C (dose: 200.0 mg/kg/injection, schedule: Q01DX005 (ip), vehicle: water) was 90 % of control and the T/C (dose: 400.0 mg/kg/injection, schedule: Q01DX005 (ip), vehicle: water) was 93 % of control.

With `CC(=O)N(CCC#N)CCC#N` the T/C [7] was 95 % of control, the T/C [8] was 96 % of control and the T/C [9] was 93 % of control.

`CC(=O)CC(=O)Nc1ccccn1` was tested, and the T/C (dose: 100.0 mg/kg/injection, schedule: Q04DX003 (ip), vehicle: Klucel (hydroxypropylcellulose) (HPC)) was 97 % of control, the T/C (dose: 200.0 mg/kg/injection, schedule: Q04DX003 (ip), vehicle: Klucel (hydroxypropylcellulose) (HPC)) was 101 % of control and the T/C (dose: 400.0 mg/kg/injection, schedule: Q04DX003 (ip), vehicle: Klucel (hydroxypropylcellulose) (HPC)) was 98 % of control.

`CNC(=O)c1cc(NC(=O)Nc2ccc(C3=NCCN3)cc2)cc(NC(=O)Nc2ccc(C3=NCCN3)cc2)c1` was tested, and the T/C (dose: 15.0 mg/kg/injection, schedule: Q01DX Z (ip), vehicle: saline) was 122 % of control, the T/C (dose: 60.0 mg/kg/injection, schedule: Q01DX Z (ip), vehicle: saline) was 216 % of control and the T/C (dose: 60.0 mg/kg/injection, schedule: Q01DX Z (oral), vehicle: saline) was 103 % of control. The T/C (dose: 120.0 mg/kg/injection, schedule: Q01DX Z (ip), vehicle: saline) was 114 % of control, the T/C (dose: 120.0 mg/kg/injection, schedule: Q01DX Z (oral), vehicle: saline) was 98 % of control and the T/C (dose: 240.0 mg/kg/injection, schedule: Q01DX Z (oral), vehicle: saline) was 106 % of control. The T/C (dose: 480.0 mg/kg/injection, schedule: Q01DX Z (oral), vehicle: saline) was 93 % of control.

`CC(=O)c1cc(C)c(C)s1` was tested, and the T/C (dose: 12.5 mg/kg/injection, schedule: Q01DX009 (ip), vehicle: saline with Tween-80) was 107 % of control, the T/C [1] was 110 % of control and the T/C [2] was 100 % of control. For the same compound, the T/C [3] was 90 % of control, the T/C (dose: 200.0 mg/kg/injection, schedule: Q01DX009 (ip), vehicle: saline with Tween-80) was 86 % of control and the T/C (dose: 200.0 mg/kg/injection, schedule: Q04DX003 (ip), vehicle: saline with Tween-80) was 96 % of control.

For `Cc1ccon1`, the T/C (dose: 100.0 mg/kg/injection, schedule: Q01DX001 (ip), vehicle: saline) was 102 % of control, the T/C (dose: 200.0 mg/kg/injection, schedule: Q01DX001 (ip), vehicle: saline) was 100 % of control and the T/C (dose: 400.0 mg/kg/injection, schedule: Q01DX001 (ip), vehicle: saline) was 96 % of control.

In the case of `O=C/C=C/Nc1ccccc1`, the T/C [7] was 105 % of control, the T/C [8] was 108 % of control and the T/C [9] was 100 % of control.

For `CC(=O)OC1CCC2(C)C3=C(CCC2C1(C)C)C1(C)CCC(c2ccc(C(C)C)oc2=O)C1(C)CC3` (stereo not given), the T/C (dose: 100.0 mg/kg/injection, schedule: Q01DX001 (sc), vehicle: steriod suspending solution) was 103 % of control, the T/C (dose: 200.0 mg/kg/injection, schedule: Q01DX001 (sc), vehicle: steriod suspending solution) was 106 % of control and the T/C (dose: 400.0 mg/kg/injection, schedule: Q01DX001 (sc), vehicle: steriod suspending solution) was 103 % of control.

`O=C1c2cccnc2C(=O)c2c(O)ccc(O)c21` was tested, and the T/C (dose: 50.0 mg/kg/injection, schedule: Q01DX001 (ip), vehicle: carboxymethylcellulose (CMC)) was 100 % of control, the T/C [4] was 108 % of control and the T/C [5] was 100 % of control. The T/C [6] was 108 % of control.

`NC(=O)c1cc(Br)ccc1O` was tested, and the T/C (dose: 50.0 mg/kg/injection, schedule: Q01DX009 (ip), vehicle: Klucel (hydroxypropylcellulose) (HPC)) was 89 % of control, the T/C (dose: 100.0 mg/kg/injection, schedule: Q01DX009 (ip), vehicle: Klucel (hydroxypropylcellulose) (HPC)) was 92 % of control and the T/C (dose: 200.0 mg/kg/injection, schedule: Q01DX009 (ip), vehicle: Klucel (hydroxypropylcellulose) (HPC)) was 95 % of control.

For `O=C1C=C(c2c(-c3ccccc3)[nH]c3ccccc23)C(=O)c2ccccc21`, the T/C (dose: 100.0 mg/kg/injection, schedule: Q01DX001 (ip), vehicle: other) was 92 % of control and the T/C (dose: 200.0 mg/kg/injection, schedule: Q01DX001 (ip), vehicle: other) was 97 % of control.

For `CCOC(=O)COC`, the T/C (dose: 50.0 mg/kg/injection, schedule: Q01DX009 (ip), vehicle: saline) was 100 % of control, the T/C (dose: 100.0 mg/kg/injection, schedule: Q01DX009 (ip), vehicle: saline) was 96 % of control and the T/C (dose: 200.0 mg/kg/injection, schedule: Q01DX009 (ip), vehicle: saline) was 89 % of control.
